# Values quoted from earlier work, collected in patent publication US10300068B2, “Method of treating insomnia” (priority 2015, dated 2019).
# Assays:
# [1] = Day 4, once-daily 40 mg, mild to moderate obstructive sleep apnea, n=26; 90% CI 0.22 to 5.09
# [2] = 40 mg non-elderly, 30 mg elderly; mild to moderate COPD, n=25
# [3] = 20 mg, healthy adults
# [4] = patients, assessed by questionnaire
# [5] = co-administered with alcohol
# intestinal P-gp = intestinal P-gp (Homo sapiens, UniProt P08183); conditions: concomitant administration with digoxin
# Sequence of intestinal P-gp (P08183 whole entry): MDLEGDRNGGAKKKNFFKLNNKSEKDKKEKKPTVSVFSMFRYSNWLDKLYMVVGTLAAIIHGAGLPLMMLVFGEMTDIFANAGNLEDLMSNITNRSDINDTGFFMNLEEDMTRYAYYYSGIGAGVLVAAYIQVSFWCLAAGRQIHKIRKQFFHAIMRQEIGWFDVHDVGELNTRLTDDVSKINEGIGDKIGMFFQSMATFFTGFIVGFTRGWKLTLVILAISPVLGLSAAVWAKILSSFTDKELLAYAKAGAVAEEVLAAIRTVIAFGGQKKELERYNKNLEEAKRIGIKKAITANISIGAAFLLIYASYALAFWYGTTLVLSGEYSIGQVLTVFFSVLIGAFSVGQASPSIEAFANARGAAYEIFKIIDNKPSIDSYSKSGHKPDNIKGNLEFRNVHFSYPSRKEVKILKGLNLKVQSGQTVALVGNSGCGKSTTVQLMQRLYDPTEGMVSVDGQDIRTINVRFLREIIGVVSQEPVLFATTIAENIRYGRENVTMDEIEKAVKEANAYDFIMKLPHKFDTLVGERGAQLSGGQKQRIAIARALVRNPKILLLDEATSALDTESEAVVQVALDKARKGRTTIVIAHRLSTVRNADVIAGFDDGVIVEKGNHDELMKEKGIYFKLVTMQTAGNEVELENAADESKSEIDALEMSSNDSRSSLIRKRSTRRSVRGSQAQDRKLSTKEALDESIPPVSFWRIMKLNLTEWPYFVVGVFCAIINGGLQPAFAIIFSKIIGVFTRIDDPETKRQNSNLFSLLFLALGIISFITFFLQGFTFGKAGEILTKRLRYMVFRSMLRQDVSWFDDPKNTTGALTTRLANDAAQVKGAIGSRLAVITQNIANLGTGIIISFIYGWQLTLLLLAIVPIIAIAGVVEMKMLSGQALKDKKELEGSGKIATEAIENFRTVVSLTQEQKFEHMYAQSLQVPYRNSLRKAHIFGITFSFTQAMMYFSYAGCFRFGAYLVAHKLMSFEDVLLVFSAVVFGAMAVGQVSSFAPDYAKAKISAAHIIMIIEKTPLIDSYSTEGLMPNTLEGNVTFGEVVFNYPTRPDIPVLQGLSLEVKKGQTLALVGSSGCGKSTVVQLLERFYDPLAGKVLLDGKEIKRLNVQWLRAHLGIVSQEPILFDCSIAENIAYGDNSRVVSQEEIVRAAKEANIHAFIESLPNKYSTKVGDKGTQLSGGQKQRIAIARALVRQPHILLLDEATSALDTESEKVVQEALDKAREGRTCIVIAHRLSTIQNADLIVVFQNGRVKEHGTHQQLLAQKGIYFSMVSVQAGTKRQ
# [6] = obese vs non-obese patients, women vs men
# [7] = tested on: epicardial coronary arteries; conditions: patients with coronary artery disease
Compound,mean Apnea/Hypopnea Index treatment difference (suvorexant-placebo) [1],respiratory depressant effects as measured by oxygen saturation [2],physical dependence with prolonged use (completed clinical trials),"withdrawal symptoms after discontinuation (human, in vivo)",driving ability [3],suicidal ideation [4],pharmacokinetics of BELSOMRA [5],psychomotor impairment [5],digoxin levels (intestinal P-gp),exposure [6],relaxation of epicardial coronary arteries [7]
"Cc1ccc(-n2nccn2)c(C(=O)N2CCN(c3nc4cc(Cl)ccc4o3)CC[C@H]2C)c1 [BELSOMRA, suvorexant]",2.7,no respiratory depressant effects,no evidence for physical dependence,no reported withdrawal symptoms,impaired in some individuals,dose-dependent increase,no alteration,additive psychomotor impairment,slightly increased,increased,–
CCCc1nn(C)c2c(=O)[nH]c(-c3cc(S(=O)(=O)N4CCN(C)CC4)ccc3OCC)nc12 [sildenafil],–,–,–,–,–,–,–,–,–,–,relax epicardial coronary arteries
